Reference: publication PMC5427475, “Effect of clopidogrel on the hydroxylation and sulfoxidation of omeprazole: A single dose study in healthy human volunteers” (EXCLI Journal, 2017)
Like-named read-outs stand apart in the source and are kept apart here.

Columns and labels:
[1] = Single-dose crossover pharmacokinetic study of omeprazole (40 mg) alone or with clopidogrel (150 mg) in healthy volunteers (CYP2C19 EM and PM), plasma LC-MS; type: in vivo, human; details: for AUC0-∞, % increase / Cmax, % increase / E Half-life, % increase / Tmax, % increase / Cl, % increase: OMP+CLOP vs OMP alone; for half-life: read-out: E Half-life (converted)
Procedure: A group of twelve healthy volunteers were recruited for this study (divided into two groups), and written informed consent was obtained from all participants included in the study. […] Electrocardiogram, routine lab tests including hematological, kidney and liver function tests were performed for all the volunteers. They were physically examined and their medical history was also evaluated. All volunteers were non-smokers and abstained from taking any other medicine and juices in the week prior to the study. Volunteers were served standard breakfast and lunch during the study. […] This study was conducted in accordance to “World Medical Association (WMA) declaration of Helsinki-Ethical principles for medical research involving human subjects” and its amendments. The study was approved by the ethical committee, Department of Pharmacy, University of […], Pakistan. (Application number13/EC/Pharm. Ref number 12/Pharm). It was a single dose, 2-period, 2-sequence study with 14 days washout period. […] Approximately 3 mL of blood was collected from each volunteer at 0, 0.5, 1, 2, 3, 4, 6, and 8 hr after dose administration in heparinized tubes. After centrifugation, the plasma was transferred into properly labeled eppendroff tubes and stored at a temperature of -20 °C until analysis. OMP and its metabolites were extracted from the plasma using precipitation method and were analyzed using LCMS method. The mobile phase consisted of 0.1 % formic acid in acetonitrile: 0.1 % formic acid in water (40/60 v/v) using Hichrom RP18 (150 × 3.0 mm, 3 μm UK) as a stationary phase interfaced with a LTQ Orbit rap mass spectrometer. Pantoprazole was used as an internal standard (Ahmad et al., 2015[1]). Various PK parameters were calculated using the PK Solutions software. […] The AUC0-∞ was determined by trapezoidal rule. The elimination half life was determined by using first-order equation, i.e., The apparent oral clearance (CL/F) was determined by using equation, Dose/AUC0-∞. The pharmacokinetic data was interpreted statistically using SPSS software (version 16.0; SPSS, Inc, Chicago, IL). […] P < 0.05 was considered statistically significant.

[2] = ref McEwen et al., 1999; cited from earlier work
[3] = extensive metabolizers, OMP 40 mg + CLOP 150 mg
[4] = extensive metabolizers, OMP 40 mg alone
[5] = poor metabolizers, OMP 40 mg + CLOP 150 mg
[6] = poor metabolizers, OMP 40 mg alone
[7] = human, plasma, oral, 40 mg, extensive metabolizers, OMP 40 mg alone
[8] = human, plasma, oral, 40 mg, extensive metabolizers, OMP 40 mg alone, read-out: Tmax
[9] = human, plasma, oral, 40 mg, poor metabolizers, OMP 40 mg alone
[10] = human, plasma, oral, 40 mg, poor metabolizers, OMP 40 mg alone, read-out: Tmax
[11] = human, plasma, oral, extensive metabolizers (n = 8), OMP 40 mg + CLOP 150 mg, single dose, plasma, read-out: Cmax
[12] = human, plasma, oral, extensive metabolizers, OMP 40 mg + CLOP 150 mg
[13] = human, plasma, oral, extensive metabolizers, OMP 40 mg + CLOP 150 mg, read-out: Tmax
[14] = human, plasma, oral, poor metabolizers (n = 4), OMP 40 mg + CLOP 150 mg, single dose, plasma, read-out: Cmax
[15] = human, plasma, oral, poor metabolizers, OMP 40 mg + CLOP 150 mg
[16] = human, plasma, oral, poor metabolizers, OMP 40 mg + CLOP 150 mg, read-out: Tmax
[17] = human, plasma, po, 40 mg, extensive metabolizers (n = 8), OMP 40 mg alone, single oral dose, plasma, read-out: Cmax
[18] = human, plasma, po, 40 mg, poor metabolizers (n = 4), OMP 40 mg alone, single oral dose, plasma, read-out: Cmax

SMILES | AUC0-∞, % increase ([1]; extensive metabolizers) | Cmax, % increase ([1]; extensive metabolizers) | E Half-life, % increase ([1]; extensive metabolizers) | Tmax, % increase ([1]; extensive metabolizers) | AUC0-∞, % increase ([1]; poor metabolizers) | Cmax, % increase ([1]; poor metabolizers) | Tmax, % increase ([1]; poor metabolizers) | AUC(0-inf) [1, 7] [ng·h/mL] | half-life [1, 7] [h] | Tmax [1, 8] [h] | AUC(0-inf) [1, 9] [ng·h/mL] | half-life [1, 9] [h] | Tmax [1, 10] [h] | Cmax [1, 11] [ng/mL] | AUC(0-inf) [1, 12] [ng·h/mL] | half-life [1, 12] [h] | Tmax [1, 13] [h] | Cmax [1, 14] [ng/mL] | AUC(0-inf) [1, 15] [ng·h/mL] | half-life [1, 15] [h] | other results
COc1ccc2nc([S+]([O-])Cc3ncc(CO)c(OC)c3C)[nH]c2c1 (centres unmarked) [5-OH-OMP, 5-hydroxyomeprazole] | -14.22% ± 2.80 | -16.23% ± 5.8 | -8.30% ± 6.1 | -8.23 ± 4.3% | -1.73% ± 2.38 | -4.9% ± 3.61 | 5.20% ± 4.0 |  |  |  |  |  |  |  |  |  |  |  |  |  | Cmax ([1]; extensive metabolizers (n = 8), OMP 40 mg + CLOP 150 mg, single dose, plasma): 401 ± 35 ng/mL; Cmax ([1]; extensive metabolizers (n = 8), OMP 40 mg alone, single oral dose, plasma): 562 ± 53 ng/mL; AUC0-∞ [1, 3]: 1615 ± 401 ng·h/mL; E Half-life [1, 3]: 1.097 ± 0.106 h; Tmax [1, 3]: 2.49 ± 0.281 h; AUC0-∞ [1, 4]: 2203 ± 619 ng·h/mL; E Half-life [1, 4]: 1.24 ± 0.129 h; Tmax [1, 4]: 2.723 ± 0.394 h; Cmax ([1]; poor metabolizers (n = 4), OMP 40 mg + CLOP 150 mg, single dose, plasma): 373 ± 32 ng/mL; Cmax ([1]; poor metabolizers (n = 4), OMP 40 mg alone, single oral dose, plasma): 407 ± 46 ng/mL; AUC0-∞ [1, 5]: 1566 ± 90 ng·h/mL; E Half-life [1, 5]: 2.828 ± 0.188 h; Tmax [1, 5]: 3.138 ± 0.251 h; AUC0-∞ [1, 6]: 1607 ± 126 ng·h/mL; E Half-life [1, 6]: 2.588 ± 0.111 h; Tmax [1, 6]: 2.988 ± 0.311 h
COC(=O)[C@H](c1ccccc1Cl)N1CCc2sccc2C1 [CLOP, clopidogrel] |  |  |  |  |  |  |  |  |  |  |  |  |  |  |  |  |  |  |  |  | oral bioavailability [2]: less than 50%
COc1ccc2[nH]c([S+]([O-])Cc3ncc(C)c(OC)c3C)nc2c1 (centres unmarked) [OMP, omeprazole] | 9.33% ± 5.13 |  | 6.31% ± 4.31 | 0.043% ± 0.0204 | 4.11% ± 1.68 | 5.46% ± 2.08 | -0.78% ± 0.32 | 4040 ± 282 | 1.05 ± 0.187 | 2.8 ± 0.178 | 8820 ± 778 | 1.58 ± 0.058 | 2.99 ± 0.411 | 1090 ± 146 | 4900 ± 620 | 1.13 ± 0.185 | 2.9 ± 0.228 | 1630 ± 116 | 9070 ± 861 | 1.51 ± 0.049 | drug metabolite ratio [AUC]OMP/5-OH-OMP ([1]; EM): 1.94 ±0.602; drug metabolite ratio [AUC]OMP/OMP-S ([1]; EM): 13.64 ± 2.711; drug metabolite ratio [AUC]OMP/5-OH-OMP ([1]; PM): 9.84 ± 4.543; drug metabolite ratio [AUC]OMP/OMP-S ([1]; PM): 9.85 ± 4.98; Cl (apparent oral clearance, Dose/AUC0-∞) [1, 3]: 1.94445 ± 0.356 mL/min/kg; Cl (apparent oral clearance, Dose/AUC0-∞) [1, 4]: 2.29722 ± 0.38992 mL/min/kg; Cl, % increase ([1]; extensive metabolizers): -15.42% ± 4.92; Tmax [1, 16]: 2.98 ± 0.414 h; Cmax [1, 17]: 890 ± 83 ng/mL; Cmax [1, 18]: 1410 ± 146 ng/mL; Cl (apparent oral clearance, Dose/AUC0-∞) [1, 5]: 0.88245 ± 0.125 mL/min/kg; Cl (apparent oral clearance, Dose/AUC0-∞) [1, 6]: 0.97735 ± 0.144 mL/min/kg; Cl, % increase ([1]; poor metabolizers): -9.6% ± 1.72; E Half-life, % increase ([1]; poor metabolizers): -4.73% ± 3.06
COc1ccc2nc(S(=O)(=O)Cc3ncc(C)c(OC)c3C)[nH]c2c1 [OMP-S, omeprazole sulfone] | 5.01% ± 1.57 | 8.01% ± 2.0 | 3.81% ± 1.70 | -2.5% ± 1.18 | 2.32% ± 2.9 |  | -3.28% ± 0.60 | 535 ± 58 | 2.37 ± 0.472 | 2.72 ± 0.278 | 1500 ± 118 | 3.34 ± 0.438 | 3.06 ± 0.17 | 198 ± 26 | 612 ± 70 | 2.48 ± 0.496 | 2.65 ± 0.255 | 431 ± 56 | 1520 ± 102 | 3.14 ± 0.44 | Tmax [1, 16]: 3 ± 0.077 h; Cmax [1, 17]: 175 ± 24 ng/mL; Cmax [1, 18]: 444 ± 53 ng/mL; E Half-life, % increase ([1]; poor metabolizers): -6.08% ± 0.96
